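A five-concentration, 48-hour dose response in 96-well plates underlies each endpoint, interpolated linearly between surrounding concentrations. The concentration for 50% growth inhibition is given as GI50. TGI: concentration producing complete growth inhibition.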
Experiments:
Test in all cases: inhibition of tumour cell growth, NCI panel, 48 h
NCI-H522 lung = system: NCI-H522 lung
LOX IMVI melanoma = system: LOX IMVI melanoma
A549 NSCLC = system: A549 NSCLC
RXF 393 renal = system: RXF 393 renal
HCT-116 colon = system: HCT-116 colon
IGROV1 ovarian = system: IGROV1 ovarian
CCRF-CEM leukemia = system: CCRF-CEM leukemia
HT29 colon = system: HT29 colon
HL-60(TB) leukemia = system: HL-60(TB) leukemia
HCT-15 colon = system: HCT-15 colon
HOP-62 NSCLC = system: HOP-62 NSCLC
MCF7 breast = system: MCF7 breast
UACC-62 melanoma = system: UACC-62 melanoma
NCI-H226 lung = system: NCI-H226 lung
HCC-2998 colon = system: HCC-2998 colon
SF-295 CNS = system: SF-295 CNS
NCI-H460 lung = system: NCI-H460 lung
DU-145 prostate = system: DU-145 prostate
NCI-H23 lung = system: NCI-H23 lung
SW-620 colon = system: SW-620 colon
MOLT-4 leukemia = system: MOLT-4 leukemia
A498 renal = system: A498 renal
SNB-75 CNS = system: SNB-75 CNS
SF-268 CNS = system: SF-268 CNS
M14 melanoma = system: M14 melanoma
KM12 colon = system: KM12 colon
PC-3 prostate = system: PC-3 prostate
HOP-92 NSCLC = system: HOP-92 NSCLC
SK-MEL-2 melanoma = system: SK-MEL-2 melanoma
OVCAR-3 ovarian = system: OVCAR-3 ovarian
K-562 leukemia = system: K-562 leukemia
OVCAR-4 ovarian = system: OVCAR-4 ovarian
TK-10 renal = system: TK-10 renal
NCI/ADR-RES ovarian = system: NCI/ADR-RES ovarian
OVCAR-5 ovarian = system: OVCAR-5 ovarian
EKVX NSCLC = system: EKVX NSCLC
ACHN renal = system: ACHN renal
UO-31 renal = system: UO-31 renal
SNB-19 CNS = system: SNB-19 CNS
OVCAR-8 ovarian = system: OVCAR-8 ovarian
SR leukemia = system: SR leukemia
SK-MEL-28 melanoma = system: SK-MEL-28 melanoma
SK-MEL-5 melanoma = system: SK-MEL-5 melanoma
UACC-257 melanoma = system: UACC-257 melanoma
MDA-MB-231 breast = system: MDA-MB-231 breast
MDA-MB-435 = system: MDA-MB-435
SK-OV-3 ovarian = system: SK-OV-3 ovarian
RPMI-8226 leukemia = system: RPMI-8226 leukemia
COLO 205 colon = system: COLO 205 colon
SN12C renal = system: SN12C renal
CAKI-1 renal = system: CAKI-1 renal
T-47D breast = system: T-47D breast
U251 CNS = system: U251 CNS
HS 578T breast = system: HS 578T breast
786-0 renal = system: 786-0 renal
BT-549 breast = system: BT-549 breast
MDA-MB-468 breast = system: MDA-MB-468 breast
SF-539 CNS = system: SF-539 CNS

O=C(N/N=C/c1occc1Br)c1[nH]c2ccc(Br)cc2c1-c1ccccc1
GI50 (NCI-H522 lung): 0.183 µM
TGI (NCI-H522 lung): 0.5 µM
GI50 (LOX IMVI melanoma): 0.663 µM
TGI (LOX IMVI melanoma): 12.7 µM
GI50 (A549 NSCLC): 1.95 µM
TGI (A549 NSCLC): 21.9 µM
GI50 (RXF 393 renal): 2.68 µM
TGI (RXF 393 renal): 22.2 µM
GI50 (HCT-116 colon): 0.557 µM
TGI (HCT-116 colon): 12.6 µM
GI50 (IGROV1 ovarian): 1.23 µM
TGI (IGROV1 ovarian): 13.7 µM
GI50 (CCRF-CEM leukemia): 0.512 µM
TGI (CCRF-CEM leukemia): 11 µM
GI50 (HT29 colon): 0.456 µM
TGI (HT29 colon): 2.68 µM
GI50 (HL-60(TB) leukemia): 0.344 µM
TGI (HL-60(TB) leukemia): 2.02 µM
GI50 (HCT-15 colon): 0.516 µM
TGI (HCT-15 colon): 11.7 µM
GI50 (HOP-62 NSCLC): 0.668 µM
TGI (HOP-62 NSCLC): 18.1 µM
GI50 (MCF7 breast): 0.323 µM
TGI (MCF7 breast): 11.9 µM
GI50 (UACC-62 melanoma): 0.384 µM
TGI (UACC-62 melanoma): 16.7 µM
GI50 (NCI-H226 lung): 2.51 µM
TGI (NCI-H226 lung): 16.6 µM
GI50 (HCC-2998 colon): 1.79 µM
TGI (HCC-2998 colon): 13.7 µM
GI50 (SF-295 CNS): 0.359 µM
TGI (SF-295 CNS): 13.5 µM
GI50 (NCI-H460 lung): 0.756 µM
TGI (NCI-H460 lung): 10.9 µM
GI50 (DU-145 prostate): 2.71 µM
TGI (DU-145 prostate): 13.1 µM
GI50 (NCI-H23 lung): 2.05 µM
TGI (NCI-H23 lung): 13.2 µM
GI50 (SW-620 colon): 0.443 µM
TGI (SW-620 colon): 14.3 µM
GI50 (MOLT-4 leukemia): 1.45 µM
TGI (MOLT-4 leukemia): 12.8 µM
GI50 (A498 renal): 14.8 µM
TGI (A498 renal): 28.8 µM
GI50 (SNB-75 CNS): 0.832 µM
TGI (SNB-75 CNS): 14.2 µM
GI50 (SF-268 CNS): 1.74 µM
TGI (SF-268 CNS): 16.2 µM
GI50 (M14 melanoma): 0.669 µM
TGI (M14 melanoma): 15.8 µM
GI50 (KM12 colon): 1.26 µM
TGI (KM12 colon): 14.1 µM
GI50 (PC-3 prostate): 0.941 µM
TGI (PC-3 prostate): 14.9 µM
GI50 (HOP-92 NSCLC): 11.2 µM
TGI (HOP-92 NSCLC): 24.7 µM
GI50 (SK-MEL-2 melanoma): 0.675 µM
TGI (SK-MEL-2 melanoma): 16.9 µM
GI50 (OVCAR-3 ovarian): 0.351 µM
TGI (OVCAR-3 ovarian): 11.8 µM
GI50 (K-562 leukemia): 0.384 µM
TGI (K-562 leukemia): > 100 µM
GI50 (OVCAR-4 ovarian): 7.1 µM
TGI (OVCAR-4 ovarian): 22 µM
GI50 (TK-10 renal): 7.68 µM
TGI (TK-10 renal): 26.5 µM
GI50 (NCI/ADR-RES ovarian): 0.348 µM
TGI (NCI/ADR-RES ovarian): 3.24 µM
GI50 (OVCAR-5 ovarian): 2.79 µM
TGI (OVCAR-5 ovarian): 13.6 µM
GI50 (EKVX NSCLC): 1.93 µM
TGI (EKVX NSCLC): 17.3 µM
GI50 (ACHN renal): 0.952 µM
TGI (ACHN renal): 16.2 µM
GI50 (UO-31 renal): 0.746 µM
TGI (UO-31 renal): 21.1 µM
GI50 (SNB-19 CNS): 2.85 µM
TGI (SNB-19 CNS): 19.3 µM
GI50 (OVCAR-8 ovarian): 2.3 µM
TGI (OVCAR-8 ovarian): 11.3 µM
GI50 (SR leukemia): 0.459 µM
TGI (SR leukemia): 30 µM
GI50 (SK-MEL-28 melanoma): 5.05 µM
TGI (SK-MEL-28 melanoma): 20.9 µM
GI50 (SK-MEL-5 melanoma): 0.677 µM
TGI (SK-MEL-5 melanoma): 6.21 µM
GI50 (UACC-257 melanoma): 12.5 µM
TGI (UACC-257 melanoma): 28.8 µM
GI50 (MDA-MB-231 breast): 1.1 µM
TGI (MDA-MB-231 breast): 14.6 µM
GI50 (MDA-MB-435): 0.249 µM
TGI (MDA-MB-435): 0.875 µM
GI50 (SK-OV-3 ovarian): 1.5 µM
TGI (SK-OV-3 ovarian): 18.1 µM
GI50 (RPMI-8226 leukemia): 2.44 µM
TGI (RPMI-8226 leukemia): 20.5 µM
GI50 (COLO 205 colon): 0.561 µM
TGI (COLO 205 colon): 3.97 µM
GI50 (SN12C renal): 1.51 µM
TGI (SN12C renal): 12.5 µM
GI50 (CAKI-1 renal): 0.698 µM
TGI (CAKI-1 renal): 17.1 µM
GI50 (T-47D breast): 0.484 µM
TGI (T-47D breast): 19.7 µM
GI50 (U251 CNS): 3.22 µM
TGI (U251 CNS): 16.8 µM
GI50 (HS 578T breast): 0.759 µM
TGI (HS 578T breast): 18.4 µM
GI50 (786-0 renal): 0.677 µM
TGI (786-0 renal): 16.7 µM
GI50 (BT-549 breast): 0.743 µM
TGI (BT-549 breast): 12.9 µM
GI50 (MDA-MB-468 breast): 0.383 µM
TGI (MDA-MB-468 breast): 16.9 µM
GI50 (SF-539 CNS): 1.16 µM
TGI (SF-539 CNS): 4.36 µM

Reference: PubChem BioAssay (NCI)
